Test results as given in patent publication US9895363B2, “Methods for modulating function of proliferating cell nuclear antigen (PCNA) and treating cancer with PCNA-targeting compounds” (University of Cincinnati, priority 2010, dated 2018).
pIC50: −log10 of the molar value. Like-named read-outs stand apart in the source and are kept apart here.

Key:
[1] = system: HUVEC (primary human umbilical endothelial cells); assay: Growth inhibition, HUVEC; assay type: cell-based; settings: for pIC50: HUVEC
Experimental: (§1) Growth inhibitory effects of PCNA-I1 and PCNA-I2 were assessed in human cancer cell lines, mouse cancer cell lines, immortalized mouse cell lines, and human primary cell lines. Specifically, growth inhibitory effects of PCNA-I1 and PCNA-I2 were assessed using MTT staining in the following cells lines: 1) human cancer cell lines including LNCaP (androgen receptor […]), 22Rv1, DU-145, LAPC-4, and PC-3 (androgen receptor […]) prostate cancer cells; MCF-7 and T47D breast cancer cells; A375 and MDA-MB435 melanoma cells; 2) mouse cancer cell lines including TRAMP-C2RE3 prostate cancer cells, B16 and K1735 melanoma cells, UV2237 fibrosarcoma cells, and CT-26 colon cancer cells; 3) immortalized mouse lung cell lines and mouse endothelial cell lines; and 4) primary human cell lines including umbilical endothelial cells (HUVEC, PromoCell, Heidelberg, Germany), primary bone marrow mesenchymal stem cells (HuMSC, PromoCell), primary human mammary epithelial cells (HuBrEC, Lonza, Walkersville, Md.), primary human prostate epithelial cells (HuPrEC, Lonza), and primary mouse spleen lymphocytes (isolated in this laboratory), and primary mouse bone marrow stromal cells (isolated in this laboratory). PCNA-I1 and PCNA-I2 were either provided by the University of Cincinnati Drug Discovery Center (UC-DDC, Cincinnati, Ohio) or were purchased from Chembridge Co (San Diego, Calif.), ChemDiv (San Diego, Calif.), and/or Sigma-Aldrich (St Louis, Mo.).
(§2) Growth inhibitory effects of the compounds were assessed by MTT staining as described previously by Dong et al. in In Vitro Model for Intrinsic Drug Resistance: Effects of Protein Kinase C Activators on the Chemosensitivity of Cultured Human Colon Cancer Cells; Mol. Pharmacol. 1991; 39: 563-9. […]
(§3) IC50 values were derived from growth inhibition curves. […] Inhibition of cell growth was calculated using the formula: growth inhibition (%)=(1−A570 of treated/A570 of control)×100. […] The fluorescence intensity was measured at 530/580 (excitation/emission) in the FLUOstar Omega microplate reader (BMG LABTECH, Cary, N.C.). […]

[2] = system: 22Rv1 prostate cancer cells; assay: Growth inhibition by MTT staining, 22Rv1; assay type: cell-based; settings: 22Rv1, 96 h, Human tumor cells, treated four days
Experimental: as §1, with “PCNA-I1 and PCNA-I2 were either provided by the University of Cincinnati Drug Discovery Center (UC-DDC, Cincinnati, Ohio) or were purchased from Chembridge Co (San Diego, Calif.), ChemDiv (San Diego, Calif.), and/or Sigma-Aldrich (St Louis, Mo.).” left out
(§4) IC50 values were derived from growth inhibition curves. […] Inhibition of cell growth was calculated using the formula: growth inhibition (%)=(1−A570 of treated/A570 of control)×100. […]

[3] = system: Lung Endothelial Cells (immortal) (Mu-Lu-Endo); assay: Growth inhibition, mouse lung endothelial cells; assay type: cell-based; settings: for pIC50: Endothelial cell
Experimental: as §1, §2, §3

[4] = system: PC-3 prostate cancer cells; assay: Growth inhibition by MTT staining, PC-3; assay type: cell-based, Human
Experimental: as §1
Growth inhibitory effects of the compounds were assessed by MTT staining as described previously by Dong et al. in In Vitro Model for Intrinsic Drug Resistance: Effects of Protein Kinase C Activators on the Chemosensitivity of Cultured Human Colon Cancer Cells; Mol. Pharmacol. 1991; 39: 563-9. Briefly, cells were cultured and treated in their respective media. Cells were plated into 96-well plates at 1000 to 5000 cells/well. After an overnight incubation, the cells were treated for four days with various concentrations (up to 10 μM) of PCNA-I1 or PCNA-I2. The live cells were stained with MTT and cells in exponential growth phase were harvested by a one to three minute treatment with a 0.25% trypsin-0.02% EDTA solution. Flasks were tapped to detach the cells, RPMI 1640-10% FBS was added, and the cell suspensions were gently agitated to produce single-cell suspensions. The cell suspensions were washed and resuspended in medium with supplements specified for different cells. Only suspensions of single cells with a viability exceeding 95% (ascertained by trypan blue exclusion) were used.
IC50 values were derived from growth inhibition curves. Data for tumor cells are a mean of five to seven experiments. Data for primary cells are a mean of three experiments. […] Inhibition of cell growth was calculated using the formula: growth inhibition (%)=(1−A570 of treated/A570 of control)×100. IC50 (the concentration that inhibited cell growth by 50%) values were also determined. For evaluation of lymphocyte growth in suspension, an Alamar blue assay was performed, wherein freshly prepared mouse spleen lymphocytes were stimulated for 72 H with 2 ug/mL concanavalin A (Sigma Chemicals, St. Louis, […].). During the last 24 H, 20 μl/well of Alamar blue (Invitrogen, Carlsbad, Calif.) was added. The fluorescence intensity was measured at 530/580 (excitation/emission) in the FLUOstar Omega microplate reader (BMG LABTECH, Cary, N.C.).
Growth inhibitory effects of PCNA-I3, PCNA-I4, PCNA-I6, PCNA-I7, PCNA-I8, PCNA-I9 and PCNA-I10 were assessed in human prostate cancer cell lines. Specifically, growth inhibitory effects of PCNA-I3, PCNA-I4, PCNA-I6, PCNA-I7, PCNA-I8, PCNA-I9 and PCNA-I10 were assessed using MTT staining in LNCaP and PC-3 cells. […]

[5] = system: UV2237 fibrosarcoma cells; assay: Growth inhibition by MTT staining, UV2237; assay type: cell-based; settings: 96 h, Mouse, treated four days
Experimental: as §1, with “PCNA-I1 and PCNA-I2 were either provided by the University of Cincinnati Drug Discovery Center (UC-DDC, Cincinnati, Ohio) or were purchased from Chembridge Co (San Diego, Calif.), ChemDiv (San Diego, Calif.), and/or Sigma-Aldrich (St Louis, Mo.).” left out
as §4

[6] = system: primary human mammary epithelial cells; assay: Growth inhibition, mammary epithelial cells; assay type: cell-based; settings: Epithelial cell, normal cells, read-out: IC50 Values, Breast Epithelial Cells
Experimental: as §1, with “PCNA-I1 and PCNA-I2 were either provided by the University of Cincinnati Drug Discovery Center (UC-DDC, Cincinnati, Ohio) or were purchased from Chembridge Co (San Diego, Calif.), ChemDiv (San Diego, Calif.), and/or Sigma-Aldrich (St Louis, Mo.).” left out
as §4

K1735 melanoma cells = assay: Growth inhibition by MTT staining, K1735; assay type: cell-based; settings: 96 h, Mouse, treated four days
Experimental: as §1, with “PCNA-I1 and PCNA-I2 were either provided by the University of Cincinnati Drug Discovery Center (UC-DDC, Cincinnati, Ohio) or were purchased from Chembridge Co (San Diego, Calif.), ChemDiv (San Diego, Calif.), and/or Sigma-Aldrich (St Louis, Mo.).” left out
as §4

[7] = system: Prostate Endothelial cells (Mu-Pr-Endo); assay: Growth inhibition, mouse prostate endothelial cells; assay type: cell-based; settings: Endothelial cell
Experimental: as §1, with “PCNA-I1 and PCNA-I2 were either provided by the University of Cincinnati Drug Discovery Center (UC-DDC, Cincinnati, Ohio) or were purchased from Chembridge Co (San Diego, Calif.), ChemDiv (San Diego, Calif.), and/or Sigma-Aldrich (St Louis, Mo.).” left out
as §4

[8] = system: primary human prostate epithelial cells; assay: Growth inhibition, prostate epithelial cells; assay type: cell-based; settings: Epithelial cell, normal cells
Experimental: as §1, with “PCNA-I1 and PCNA-I2 were either provided by the University of Cincinnati Drug Discovery Center (UC-DDC, Cincinnati, Ohio) or were purchased from Chembridge Co (San Diego, Calif.), ChemDiv (San Diego, Calif.), and/or Sigma-Aldrich (St Louis, Mo.).” left out
as §4

[9] = Toxicity evaluation in tumor-bearing mice; assay type: in vivo
Experimental: The therapeutic effects of PCNA-I1 were evaluated in LNCaP cells and 22Rv1 tumor models. LNCaP or 22Rv1 cells (1-2×10^6 cells in gelfoam) were implanted into the subcutis of male nude mice. From four to five days later, tumor-bearing mice were intraperitoneally injected with 10 mg/kg or 50 mg/kg of PCNA-I1. The therapy was continued at three times/week until termination of experiments. Control and treated tumor-bearing mice were monitored daily. Mouse body weight was recorded for toxicity evaluation twice a week and tumor size was measured using calipers twice a week. The experiments were terminated when mice in control groups were moribund. Additionally, to further evaluate potential liver and renal toxicity of PCNA-I1, the blood of tumor-bearing mice were sampled after the treatment with PCNA-I1 for 8 weeks.

## Cc1ccsc1C(=O)N/N=C/c1ccc2ccccc2c1O [PCNA-I1]
[1]; FIG. 2(C)
  Growth stimulation, HUVEC: Moderate growth stimulation
[1]; Human, Blood Vessel, normal cells, mean of three experiments, read-out: IC50 Values, HUVEC
  pIC50: 5.81
[1]; Homo sapiens, FIG. 2(C), read-out: IC50, HUVEC
  pIC50: 5.81
[2]
  pIC50: 6.74
[3]; Mouse, Blood Vessel, normal cells, read-out: IC50 Values, Lung Endothelial Cells (immortal)
  pIC50: 5.94
[3]; FIG. 2(C)
  Growth stimulation, Mu-Lu-Endo: Moderate growth stimulation
[3]; Mus musculus, FIG. 2(C), read-out: IC50, Mu-Lu-Endo
  pIC50: 5.94
[4]; 96 h, Table II, Human tumor cells, MTT, treated four days, mean of five to seven experiments, read-out: IC50 Values, PC-3
  pIC50: 6.62
[4]; Homo sapiens, FIG. 2(C), read-out: IC50, PC-3
  pIC50: 6.60
[5]
  pIC50: 6.60
[6]
  pIC50: 5.78
K1735 melanoma cells
  pIC50: 7.30
[7]; Mouse, Blood Vessel, normal cells, read-out: IC50 Values, Prostate Endothelial
  pIC50: 6.17
[7]; Mus musculus, FIG. 2(C), read-out: IC50, Mu-Pr-Endo
  pIC50: 6.17
[8]
  pIC50: 5.70
[9]; 10 or 50 mg/kg i.p. every other day, up to 8 weeks
  Body weight of tumor-bearing mice: did not cause significant reduction in the body weight
[9]; treatment for 8 weeks, FIG. 21
  Aspartate transaminase (AST or SGOT): not significantly altered
  Blood urea nitrogen (BUN): not significantly altered
  Serum alanine transaminase (ALT or SGPT): not significantly altered
